Measured values: patent publication US8809336B2, “Ortho-condensed pyridine and pyrimidine derivatives (e.g., purines) as protein kinases inhibitors” (Astex Therapeutics Limited, priority 2004, dated 2014)
Read-outs that look alike come from different tables or passages of the source.

Key:
PKB-PIF fusion protein = molecular target: T1, PKB-PIF fusion protein (Homo sapiens, UniProt P31751); test: Measurement of PKB kinase inhibitory activity (IC50), 33P-ATP phosphocellulose filter assay; format: biochemical
T1 construct: PIF (fusion partner); made in house
T1 sequence (P31751 with tags, fused parts or gaps limits assumed): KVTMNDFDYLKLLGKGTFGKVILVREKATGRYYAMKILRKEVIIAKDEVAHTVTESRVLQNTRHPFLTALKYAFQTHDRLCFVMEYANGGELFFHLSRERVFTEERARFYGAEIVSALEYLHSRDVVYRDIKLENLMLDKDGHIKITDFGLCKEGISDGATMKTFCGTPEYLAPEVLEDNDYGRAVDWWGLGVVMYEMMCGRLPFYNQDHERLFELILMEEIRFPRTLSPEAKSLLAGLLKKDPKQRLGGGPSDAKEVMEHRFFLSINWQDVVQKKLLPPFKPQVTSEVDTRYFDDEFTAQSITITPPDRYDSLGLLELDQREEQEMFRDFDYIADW
Method: The inhibition of protein kinase B (PKB) activity by compounds can be determined essentially as described by Andjelkovic et al. (Mol. Cell. Biol. 19, 5061-5072 (1999)) but using a fusion protein described as PKB-PIF and described in full by Yang et al (Nature Structural Biology 9, 940-944 (2002)). […] A final concentration of 0.6 nM enzyme is used in a buffer that includes 20 mM MOPS pH 7.2, 30 μM ATP/γ^33P-ATP and 25 μM substrate.
Compounds are added in DMSO solution to a final DMSO concentration of 2.5%. The reaction is allowed to proceed for 20 minutes before addition of excess orthophosphoric acid to quench activity. The reaction mixture is transferred to a phosphocellulose filter plate where the peptide binds and the unused ATP is washed away. After washing, scintillant is added and the incorporated activity measured by scintillation counting.
The % inhibition of the PKB activity is calculated and plotted in order to determine the concentration of test compound required to inhibit 50% of the PKB activity (IC50).

PKA catalytic domain = molecular target: T2, PKA catalytic domain (Homo sapiens, UniProt P17612); test: Measurement of PKA kinase inhibitory activity (IC50), 33P-ATP filter plate assay; format: biochemical; conditions: 1 nM enzyme, 40 μM ATP, 20 minutes; read-out: IC50, inhibition of PKA activity
T2 construct: using the PKA catalytic domain from Upstate Biotechnology (#14-440); purchased Upstate Biotechnology 14-440
Method: A final concentration of 1 nM enzyme is used in a buffer that includes 20 mM MOPS pH 7.2, 40 μM ATP/γ^33P-ATP and […] substrate. Compounds are added in dimethylsulphoxide (DMSO) solution to a final DMSO concentration of 2.5%. The reaction is allowed to proceed for 20 minutes before addition of excess orthophosphoric acid to quench activity. Unincorporated γ^33P-ATP is then separated from phosphorylated proteins on a Millipore MAPH filter plate. The plates are washed, scintillant is added and the plates are then subjected to counting on a Packard Topcount.

[1] = 0.6 nM enzyme, 30 μM ATP, 25 μM AKTide-2T substrate, 20 minutes, read-out: IC50, inhibition of PKB activity

SMILES	IC50 (PKB-PIF fusion protein; [1]) [µM]	IC50 (PKA catalytic domain) [µM]	IC50 (PKB-PIF fusion protein) [µM]
CNC1CCN(c2ncnc3[nH]cnc23)CC1 [Example 1, Methyl-[1-(9H-purin-6-yl)-piperidin-4-yl]-amine]	< 10	< 10	
c1ccc(CNC2CCN(c3ncnc4[nH]cnc34)CC2)cc1 [Example 2, Benzyl-[1-(9H-purin-6-yl)-piperidin-4-yl]-amine]	< 10		
NC1CCN(c2ncnc3[nH]c(=O)[nH]c23)CC1 [Example 4, 6-(4-Aminopiperidin-1-yl)-7,9-dihydropurin-8-one]	< 10	< 50	
O=c1[nH]c2ncnc(N3CCC(O)(Cc4ccccc4)CC3)c2[nH]1 [Example 5, 6-(4-Benzyl-4-hydroxypiperidin-1-yl)-7,9-dihydropurin-8-one]	< 50	< 50	
O=c1[nH]c2ncnc(N3CCNCC3)c2[nH]1 [Example 6, 6-(Piperazin-1-yl)-7,9-dihydropurin-8-one]	< 10	< 10	
O=c1[nH]c2ncnc(N3CCN[C@H](COCc4ccccc4)C3)c2[nH]1 [Example 7, (3S)-6-(3-Benzyloxymethylpiperazin-1-yl)-7,9-dihydropurin-8-one]	< 50	< 50	
O=c1[nH]c2ncnc(N3CCC(NCCc4ccccc4)CC3)c2[nH]1 [Example 8, 6-(4-Phenethylaminopiperidin-1-yl)-7,9-dihydro-purin-8-one]	< 10	< 10	
O=c1[nH]c2ncnc(N3CCC(NCc4ccccc4Cl)CC3)c2[nH]1 [Example 9, 6-[4-(2-Chlorobenzylamino)-piperidin-1-yl]-7,9-dihydro-purin-8-one]	< 50	< 50	
O=c1[nH]c2ncnc(N3CCC(NCc4cccc(Cl)c4)CC3)c2[nH]1 [Example 10, 6-[4-(3-Chlorobenzylamino)-piperidin-1-yl]-7,9-dihydro-purin-8-one]	< 10	< 10	
NC1CCN(c2ncnc3[nH]ncc23)CC1 [Example 11, 1-(1H-Pyrazolo[3,4-d]pyrimidin-4-yl)-piperidin-4-ylamine]	< 10	< 10	
NC1CCN(c2ncnc3[nH]ccc23)CC1 [Example 12, 1-(7H-Pyrrolo[2,3-d]pyrimidin-4-yl)-piperidin-4-ylamine]	< 10	< 10	
NCC1(c2ccc(Cl)cc2)CCN(c2ncnc3[nH]cnc23)CC1 [Example 15, C-[4-(4-Chloro-phenyl)-1-(9H-purin-6-yl)-piperidin-4-yl]-methylamine]	< 10		
NC1(Cc2ccccc2)CCN(c2ncnc3[nH]cnc23)CC1 [Example 16, 4-Benzyl-1-(9H-purin-6-yl)piperidin-4-ylamine]	< 10		
NCC1(c2ccc(Cl)cc2)CCN(c2ccnc3[nH]ccc23)CC1 [Example 21, C-[4-(4-Chlorophenyl)-1-(1H-pyrrolo[2,3-b]pyridin-4-yl)piperidin-4-yl]methylamine]	< 10		
CCn1c(=O)[nH]c2ncnc(N3CCC(CN)(c4ccc(Cl)cc4)CC3)c21 [Example 22, 6-[4-Aminomethyl-4-(4-chlorophenyl)piperidin-1-yl]-7-ethyl-7,9-dihydro-purin-8-one]	< 10		
NCC1(Cc2ccc(Cl)cc2)CCN(c2ncnc3[nH]cnc23)CC1 [Example 23, C-[4-(4-Chlorobenzyl)-1-(9H-purin-6-yl)piperidin-4-yl]methylamine]	< 10		
N#CC1(c2ccc(Cl)cc2)CCN(c2ncnc3[nH]ccc23)CC1 [Example 24, 4-(4-Chlorophenyl)-1-(7H-pyrrolo[2,3-d]pyrimidin-4-yl)piperidine-4-carbonitrile]			< 10

SMILES	IC50 (PKB-PIF fusion protein; [1]) [µM]	IC50 (PKA catalytic domain) [µM]	IC50 (PKB-PIF fusion protein) [µM]
NCC1(c2cccc(Cl)c2)CCN(c2ncnc3[nH]cnc23)CC1 [Example 27, C-[4-(3-Chlorophenyl)-1-(9H-purin-6-yl)piperidin-4-yl]methylamine]	< 10		
NCC1(c2ccc(Cl)c(Cl)c2)CCN(c2ncnc3[nH]cnc23)CC1 [Example 29, C-[4-(3,4-Dichlorophenyl)-1-(9H-purin-6-yl)piperidin-4-yl]methylamine]	< 10		
NCC1(c2ccc(OC(F)(F)F)cc2)CCN(c2ncnc3[nH]ccc23)CC1 [Example 30]	< 10		
NCC1(c2ccc(C(F)(F)F)cc2)CCN(c2ncnc3[nH]cnc23)CC1 [Example 33, C-[1-(9H-Purin-6-yl)-4-(4-trifluoromethylphenyl)piperidin-4-yl]methylamine]	< 10		
NCC1(c2cccc(C(F)(F)F)c2)CCN(c2ncnc3[nH]ccc23)CC1 [Example 34, C-[1-(7H-Pyrrolo[2,3-d]pyrimidin-4-yl)-4-(3-trifluoromethylphenyl)piperidin-4-yl]methylamine]	< 10		
NCC1(c2cccc(C(F)(F)F)c2)CCN(c2ncnc3[nH]cnc23)CC1 [Example 35, C-[1-(9H-Purin-6-yl)-4-(3-trifluoromethylphenyl)piperidin-4-yl]methylamine]	< 10		
NCC1(c2ccc(F)c(F)c2)CCN(c2ncnc3[nH]ccc23)CC1 [Example 36, C-[4-(3,4-Difluorophenyl)-1-(7H-pyrrolo[2,3-d]pyrimidin-4-yl)piperidin-4-yl]methylamine]	< 10		
NCC1(c2ccc(F)c(F)c2)CCN(c2ncnc3[nH]cnc23)CC1 [Example 37, C-[4-(3,4-Difluorophenyl)-1-(9H-purin-6-yl)piperidin-4-yl]methylamine]	< 10		
COc1ccc(C2(CN)CCN(c3ncnc4[nH]cnc34)CC2)cc1 [Example 39, C-[4-(4-Methoxyphenyl)-1-(9H-purin-6-yl)piperidin-4-yl]methylamine]	< 10		
NCC1(c2ccc(OCc3ccccc3)cc2)CCN(c2ncnc3[nH]cnc23)CC1 [Example 41, C-[4-(4-Benzyloxyphenyl)-1-(9H-purin-6-yl)piperidin-4-yl]methylamine]	< 10		
CC(C)NCC1(c2ccc(Cl)cc2)CCN(c2ncnc3[nH]ccc23)CC1 [Example 43, [4-(4-Chlorophenyl)-1-(7H-pyrrolo[2,3-d]pyrimidin-4-yl)-piperidin-4-ylmethyl]-isopropylamine]	< 10		
NCC1(Cc2ccc(Cl)c(Cl)c2)CCN(c2ncnc3[nH]ccc23)CC1 [Example 45, C-[4-(3,4-Dichlorobenzyl)-1-(7H-pyrrolo[2,3-d]pyrimidin-4-yl)piperidin-4-yl]methylamine]	< 10		
NCC1(Cc2ccc(Cl)c(Cl)c2)CCN(c2ncnc3[nH]cnc23)CC1 [Example 46, C-[4-(3,4-Dichlorobenzyl)-1-(9H-purin-6-yl)piperidin-4-yl]methylamine]	< 10		
NCC1(Cc2ccc(OC(F)(F)F)cc2)CCN(c2ncnc3[nH]ccc23)CC1 [Example 47, C-[1-(7H-Pyrrolo[2,3-d]pyrimidin-4-yl)-4-(4-trifluoromethoxybenzyl)piperidin-4-yl]methylamine]	< 10		
NCC1(Cc2ccc(OC(F)(F)F)cc2)CCN(c2ncnc3[nH]cnc23)CC1 [Example 48, C-[1-(9H-Purin-6-yl)-4-(4-trifluoromethoxybenzyl)piperidin-4-yl]methylamine]	< 10		
NC1(Cc2ccc(Cl)c(Cl)c2)CCN(c2ncnc3[nH]cnc23)CC1 [Example 50, 4-(3,4-Dichlorobenzyl)-1-(9H-purin-6-yl)piperidin-4-yl amine]	< 10		
NC1(Cc2ccc(OC(F)(F)F)cc2)CCN(c2ncnc3[nH]cnc23)CC1 [Example 52, 1-(9H-Purin-6-yl)-4-(4-trifluoromethoxybenzyl)piperidin-4-ylamine]	< 10		
